Laboratory results from PubChem BioAssay (NCI).
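A five-concentration, 48-hour dose response in 96-well plates underlies each endpoint, interpolated linearly between surrounding concentrations. Abbreviation: GI50, concentration required for 50% inhibition of growth. At the TGI there is no net growth.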

Columns and labels:
Test in all cases: NCI tumour cell line growth inhibition, 48 h
786-0 renal = tested on: 786-0 renal
A498 renal = tested on: A498 renal
ACHN renal = tested on: ACHN renal
BT-549 breast = tested on: BT-549 breast
CAKI-1 renal = tested on: CAKI-1 renal
CCRF-CEM leukemia = tested on: CCRF-CEM leukemia
COLO 205 colon = tested on: COLO 205 colon
DU-145 prostate = tested on: DU-145 prostate
HCC-2998 colon = tested on: HCC-2998 colon
HCT-116 colon = tested on: HCT-116 colon
HCT-15 colon = tested on: HCT-15 colon
HL-60(TB) leukemia = tested on: HL-60(TB) leukemia
HOP-62 NSCLC = tested on: HOP-62 NSCLC
HOP-92 NSCLC = tested on: HOP-92 NSCLC
HS 578T breast = tested on: HS 578T breast
HT29 colon = tested on: HT29 colon
IGROV1 ovarian = tested on: IGROV1 ovarian
K-562 leukemia = tested on: K-562 leukemia
KM12 colon = tested on: KM12 colon
LOX IMVI melanoma = tested on: LOX IMVI melanoma
M14 melanoma = tested on: M14 melanoma
MALME-3M melanoma = tested on: MALME-3M melanoma
MCF7 breast = tested on: MCF7 breast
MDA-MB-231 breast = tested on: MDA-MB-231 breast
MDA-MB-435 = tested on: MDA-MB-435
MOLT-4 leukemia = tested on: MOLT-4 leukemia
NCI-H226 lung = tested on: NCI-H226 lung
NCI-H23 lung = tested on: NCI-H23 lung
NCI-H460 lung = tested on: NCI-H460 lung
NCI-H522 lung = tested on: NCI-H522 lung
NCI/ADR-RES ovarian = tested on: NCI/ADR-RES ovarian
OVCAR-3 ovarian = tested on: OVCAR-3 ovarian
OVCAR-4 ovarian = tested on: OVCAR-4 ovarian
OVCAR-5 ovarian = tested on: OVCAR-5 ovarian
OVCAR-8 ovarian = tested on: OVCAR-8 ovarian
PC-3 prostate = tested on: PC-3 prostate
RPMI-8226 leukemia = tested on: RPMI-8226 leukemia
RXF 393 renal = tested on: RXF 393 renal
SF-268 CNS = tested on: SF-268 CNS
SF-539 CNS = tested on: SF-539 CNS
SK-MEL-2 melanoma = tested on: SK-MEL-2 melanoma
SK-MEL-28 melanoma = tested on: SK-MEL-28 melanoma
SK-MEL-5 melanoma = tested on: SK-MEL-5 melanoma
SK-OV-3 ovarian = tested on: SK-OV-3 ovarian
SN12C renal = tested on: SN12C renal
SNB-19 CNS = tested on: SNB-19 CNS
SNB-75 CNS = tested on: SNB-75 CNS
SR leukemia = tested on: SR leukemia
SW-620 colon = tested on: SW-620 colon
T-47D breast = tested on: T-47D breast
TK-10 renal = tested on: TK-10 renal
U251 CNS = tested on: U251 CNS
UACC-257 melanoma = tested on: UACC-257 melanoma
UACC-62 melanoma = tested on: UACC-62 melanoma
UO-31 renal = tested on: UO-31 renal

For `CCC(=O)N1C/C(=C/c2ccc(OC)cc2)C(=O)/C(=C/c2ccc(OC)cc2)C1`, the GI50 (786-0 renal) was 1.87 µM, the TGI (786-0 renal) was 3.72 µM and the GI50 (A498 renal) was 1.92 µM. For the same compound, the TGI (A498 renal) was 3.51 µM, the GI50 (ACHN renal) was 1.8 µM and the TGI (ACHN renal) was 3.43 µM. For the same compound, the GI50 (BT-549 breast) was 1.88 µM, the TGI (BT-549 breast) was 3.5 µM and the GI50 (CAKI-1 renal) was 2.74 µM. It also gave a TGI (CAKI-1 renal) of 9.73 µM, a GI50 (CCRF-CEM leukemia) of 1.75 µM and a TGI (CCRF-CEM leukemia) of 8.31 µM. For the same compound, the GI50 (COLO 205 colon) was 1.99 µM, the TGI (COLO 205 colon) was 3.65 µM and the GI50 (DU-145 prostate) was 2.91 µM. For the same compound, the TGI (DU-145 prostate) was 10.6 µM, the GI50 (HCC-2998 colon) was 1.93 µM and the TGI (HCC-2998 colon) was 3.42 µM. The GI50 (HCT-116 colon) was 0.263 µM, the TGI (HCT-116 colon) was 0.646 µM and the GI50 (HCT-15 colon) was 2.03 µM. It also gave a TGI (HCT-15 colon) of 5.31 µM, a GI50 (HL-60(TB) leukemia) of 2.98 µM and a TGI (HL-60(TB) leukemia) of 53.1 µM. The GI50 (HOP-62 NSCLC) was 2.79 µM, the TGI (HOP-62 NSCLC) was 6.45 µM and the GI50 (HOP-92 NSCLC) was 2.11 µM. The TGI (HOP-92 NSCLC) was 7.77 µM, the GI50 (HS 578T breast) was 2.35 µM and the TGI (HS 578T breast) was 7.47 µM. The GI50 (HT29 colon) was 1.18 µM, the TGI (HT29 colon) was 4.13 µM and the GI50 (IGROV1 ovarian) was 2.21 µM. The TGI (IGROV1 ovarian) was 4.93 µM, the GI50 (K-562 leukemia) was 1.19 µM and the TGI (K-562 leukemia) was over 100 µM. For the same compound, the GI50 (KM12 colon) was 1.38 µM, the TGI (KM12 colon) was 2.85 µM and the GI50 (LOX IMVI melanoma) was 0.95 µM. It also gave a TGI (LOX IMVI melanoma) of 2.28 µM, a GI50 (M14 melanoma) of 1.92 µM and a TGI (M14 melanoma) of 3.96 µM. It also gave a GI50 (MALME-3M melanoma) of 2.47 µM, a TGI (MALME-3M melanoma) of 6.26 µM and a GI50 (MCF7 breast) of 0.498 µM. The TGI (MCF7 breast) was 12.2 µM, the GI50 (MDA-MB-231 breast) was 1.98 µM and the TGI (MDA-MB-231 breast) was 4.28 µM. For the same compound, the GI50 (MDA-MB-435) was 1.23 µM, the TGI (MDA-MB-435) was 4.42 µM and the GI50 (MOLT-4 leukemia) was 3.31 µM. For the same compound, the TGI (MOLT-4 leukemia) was over 100 µM, the GI50 (NCI-H226 lung) was 22.3 µM and the TGI (NCI-H226 lung) was over 100 µM. It also gave a GI50 (NCI-H23 lung) of 2.26 µM, a TGI (NCI-H23 lung) of 5.39 µM and a GI50 (NCI-H460 lung) of 2.05 µM. For the same compound, the TGI (NCI-H460 lung) was 4.48 µM, the GI50 (NCI-H522 lung) was 1.85 µM and the TGI (NCI-H522 lung) was 3.86 µM. For the same compound, the GI50 (NCI/ADR-RES ovarian) was 3.54 µM, the TGI (NCI/ADR-RES ovarian) was over 100 µM and the GI50 (OVCAR-3 ovarian) was 1.82 µM. It also gave a TGI (OVCAR-3 ovarian) of 3.73 µM, a GI50 (OVCAR-4 ovarian) of 3.37 µM and a TGI (OVCAR-4 ovarian) of over 100 µM. For the same compound, the GI50 (OVCAR-5 ovarian) was 1.86 µM, the TGI (OVCAR-5 ovarian) was 3.75 µM and the GI50 (OVCAR-8 ovarian) was 2.86 µM. For the same compound, the TGI (OVCAR-8 ovarian) was over 100 µM, the GI50 (PC-3 prostate) was 2.17 µM and the TGI (PC-3 prostate) was 7.94 µM. The GI50 (RPMI-8226 leukemia) was 0.231 µM, the TGI (RPMI-8226 leukemia) was 0.748 µM and the GI50 (RXF 393 renal) was 1.72 µM. The TGI (RXF 393 renal) was 3.17 µM, the GI50 (SF-268 CNS) was 2.31 µM and the TGI (SF-268 CNS) was 5.71 µM. The GI50 (SF-539 CNS) was 1.62 µM, the TGI (SF-539 CNS) was 3.1 µM and the GI50 (SK-MEL-2 melanoma) was 2.53 µM. The TGI (SK-MEL-2 melanoma) was 5.38 µM, the GI50 (SK-MEL-28 melanoma) was 1.85 µM and the TGI (SK-MEL-28 melanoma) was 3.74 µM. The GI50 (SK-MEL-5 melanoma) was 1.62 µM, the TGI (SK-MEL-5 melanoma) was 3.04 µM and the GI50 (SK-OV-3 ovarian) was 4.61 µM. The TGI (SK-OV-3 ovarian) was 27.9 µM, the GI50 (SN12C renal) was 1.78 µM and the TGI (SN12C renal) was 3.51 µM. The GI50 (SNB-19 CNS) was 2.93 µM, the TGI (SNB-19 CNS) was 19.3 µM and the GI50 (SNB-75 CNS) was 5.91 µM. It also gave a TGI (SNB-75 CNS) of over 100 µM, a GI50 (SR leukemia) of 0.382 µM and a TGI (SR leukemia) of over 100 µM. It also gave a GI50 (SW-620 colon) of 1.66 µM, a TGI (SW-620 colon) of 3.64 µM and a GI50 (T-47D breast) of 5.1 µM. The TGI (T-47D breast) was over 100 µM, the GI50 (TK-10 renal) was 2.72 µM and the TGI (TK-10 renal) was 6.54 µM. It also gave a GI50 (U251 CNS) of 1.78 µM, a TGI (U251 CNS) of 4.08 µM and a GI50 (UACC-257 melanoma) of 2.21 µM. For the same compound, the TGI (UACC-257 melanoma) was 5.88 µM, the GI50 (UACC-62 melanoma) was 1.6 µM and the TGI (UACC-62 melanoma) was 3.01 µM. It also gave a GI50 (UO-31 renal) of 1.34 µM and a TGI (UO-31 renal) of 2.71 µM.
